Measured values as given in patent publication US5328917A, “Piperidine compounds for treating anoxia, cerebral ischemia migraine or epilepsy” (Novo Nordisk A/S, priority 1990, dated 1994).
Structures can show the parent of a compound that is named as a salt.

Experiments:
[1] = system: voltage operated calcium channels; assay: Inhibition of depolarization-stimulated 45Ca uptake into brain synaptosomes (crude P2 fraction of cerebral cortex); assay type: biochemical, male Wistar rat; conditions: rat cerebral cortex synaptosomes, KCl-depolarized, corrected for basal uptake, 15 s uptake at 37° C., estimated from dose response curves
Description: The pharmacological properties of the compounds of the invention can be illustrated by determining their capability to inhibit calcium uptake into brain synaptosomes. Depolarization of neuronal membranes leads to an opening of socalled "voltage operated calcium channels" (VOC) in the membranes which allows a massive influx of calcium from the extracellular space. A crude synaptosomal preparation (socalled P2 fraction) contains small vesicles surrounded by neuronal membrane and it is possible in such a preparation to study a depolarization-induced opening of VOC. In the present model ^45 Ca influx is induced in the synaptosomes by depolarization with elevated potassium concentrations, and the effect of test substances on this stimulated uptake is studied ([…]. and Blaustein, M. P., Mol. […] A male Wistar rat is decapitated and the cerebral cortex removed and homogenized in 10 ml. of ice-cold 0.32M sucrose using a glass homogenizer with a teflon pestle. All subsequent steps for isolation of synaptosomes are done at 0°-4° C. […] This pellet (P2) is resuspended in 0.32M sucrose (5 ml per g of original tissue) with a teflon pestle. […] The tubes are pre-incubated for 30 min on ice and then for 6 min at 37° C. in a water bath. […] The incubation is continued for 15 s. […] The amount of radioactivity on the filter disc is determined by liquid scintillation spectrometry. Test substances are dissolved in 10 ml of 48% ethanol at a concentration of 0.44 mg/ml. Dilution are made in 48% ethanol to give final concentrations of 0.1, 0.3, 1, 3 and 10 μg/ml. Experiments are performed in triplicate. […] The IC50 value is estimated from dose response curves.

[2] = system: peripheral calcium uptake, e.g. in blood vessels and the heart; conditions: well known calcium antagonists; cited from earlier work

| Compound | IC50 (concentration of test substance which inhibits 50% of stimulated uptake of 45Ca) [1] [µg/mL] | further results |
| --- | --- | --- |
| CCCCN1CC[C@@H](c2ccc(N(C)C)cc2)[C@H](COc2ccc(C(F)(F)F)cc2)C1.Cl (racemic) [Compound 11, (+-)trans-1-butyl-4-(4-dimethylaminophenyl)-3-(4-trifluoromethylphenoxymethyl)piperidine, hydrochloride] | 4.9 |  |
| CCCCN1CC[C@@H](c2ccc(N(C)C)cc2)[C@H](COc2cccc(C(F)(F)F)c2)C1.Cl (racemic) [Compound 17, (+-)trans-1-butyl-4-(4-dimethylaminophenyl)-3-(3-trifluoromethylphenoxymethyl)piperidine, hydrochloride] | 7.4 |  |
| CCCCN1CC[C@@H](c2ccc(N(C)C)cc2)[C@H](COc2ccc(Cl)cc2)C1 (relative stereo) [Compound 51, (+-) trans 1-butyl-3-(4-chlorophenoxymethyl)-4-(4-dimethylaminophenyl) piperidine, hydrochloride] | 3.8 |  |
| CCCCN1CC[C@@H](c2ccc(N(C)C)cc2)[C@H](COc2ccc(Cl)c(Cl)c2)C1 (relative stereo) [Compound 52, (+-) trans 1-butyl-3-(3,4-dichlorophenoxymethyl) 4-(4-dimethylaminophenyl)piperidine, HCl] | 2.8 |  |
| CCCCN1CC[C@@H](c2ccc(N(C)C)cc2)[C@H](COc2ccc([N+](=O)[O-])cc2)C1 (relative stereo) [Compound 57, (+-) trans 1-butyl-4-(4-dimethylaminophenyl)-3-(4-nitrophenoxymethyl) piperidine, HCl] | 3.2 |  |
| O=[N+]([O-])c1ccc([C@@H]2CCNC[C@H]2COc2cccc(C(F)(F)F)c2)cc1 (single isomer, unassigned) [Compound 9, (31)trans-4-(4-nitrophenyl)-3-(3-trifluoromethylphenoxymethyl)piperidine, hydrochloride] | 7.2 |  |
| CCCCN1CC[C@@H](c2ccc(N(C)C)cc2)[C@H](COc2ccc(C(F)(F)F)cc2)C1.Cl.Cl (single isomer, unassigned) [Compound 64, (+)-trans-1-butyl-4-(4-dimethylaminophenyl)-3-(4-trifluoromethylphenoxymethyl)piperidine dihydrochloride] |  | IC50 (concentration of test substance which inhibits 50% of stimulated uptake of 45Ca) ([1]; dihydrochloride): 4.2 µg/mL |
| CCCCN1CC[C@@H](c2ccc(N(C)C)cc2)[C@H](COc2ccc(C(F)(F)F)cc2)C1.Cl.Cl (single isomer, unassigned) [Compound 65, (-)-trans-1-butyl-4-(4-dimethylaminophenyl)-3-(4-trifluoromethylphenoxymethyl)piperidine dihydrochloride] |  | IC50 (concentration of test substance which inhibits 50% of stimulated uptake of 45Ca) ([1]; dihydrochloride): 6.5 µg/mL |
| COc1ccc([C@@H]2Sc3ccccc3N(CCN(C)C)C(=O)[C@@H]2OC(C)=O)cc1 [Diltiazem] |  | activity against peripheral calcium uptake [2]: have activity against peripheral calcium uptake |
| COC(=O)C1=C(C)NC(C)=C(C(=O)OC)C1c1ccccc1[N+](=O)[O-] [Nifedipine] |  | activity against peripheral calcium uptake [2]: have activity against peripheral calcium uptake |
| COc1ccc(CCN(C)CCCC(C#N)(c2ccc(OC)c(OC)c2)C(C)C)cc1OC (centres unmarked) [Verapamil] |  | activity against peripheral calcium uptake [2]: have activity against peripheral calcium uptake |

Now from value to compound, other results behind:

| IC50 (concentration of test substance which inhibits 50% of stimulated uptake of 45Ca) [1] [µg/mL] | Compound | further results |
| --- | --- | --- |
| 5.0 | CCCCN1CC[C@@H](c2ccc(N(C)C)cc2)[C@H](COc2ccc3c(c2)OCO3)C1.Cl (racemic) [Compound 15, (+-)trans-1-butyl-4-(4-dimethylaminophenyl)-3-(3,4-methylenedioxyphenoxymethyl)piperidine, hydrochloride] |  |
| 8.9 | CCCCCN1CC[C@@H](c2ccc(N)cc2)[C@H](COc2ccc3c(c2)OCO3)C1.Cl (single isomer, unassigned) [Compound 10, (+)trans-4-(4-aminophenyl)-3-(3,4-methylenedioxyphenoxymethyl)-1-pentylpiperidine, hydrochloride] |  |
| 6.4 | CCCCCN1CC[C@@H](c2ccc(F)cc2)[C@H](COCc2ccc(C(F)(F)F)cc2)C1 (single isomer, unassigned) [Compound 36, (-) trans-4-(4-fluorophenyl)-1-pentyl-3-(4-trifluoromethylbenzyloxymethyl)-piperidine, HCl] |  |
| 5.5 | CCCCCN1CC[C@@H](c2ccc(F)cc2)[C@H](COCc2cccc(C(F)(F)F)c2)C1 (single isomer, unassigned) [Compound 60, (-)trans-4-(4-fluorophenyl)-1-pentyl-3-(3-trifluoromethylbenzyloxymethyl)-piperidine, HCl] |  |
| 2.7 | CCCCN1CCC(c2ccccc2)C(CNCc2ccc(OC)cc2)C1 (centres unmarked) [Compound 20, 1-butyl-3-(4-methoxybenzylaminomethyl)-4-phenylpiperidine, HCl] |  |
| 4 | CCCCN1CCC(c2ccccc2)C(CNc2ccc(C(F)(F)F)cc2)C1 (centres unmarked) [Compound 22, 1-butyl-3-(4-trifluoromethylphenylaminomethyl)-4-phenylpiperidine, HCl] |  |
